# Experimental data published in patent US8389730B2, “Compositions and methods for the treatment of disease associated with TRP-P8 expression” (Dendreon Corporation, priority 2003, dated 2013).
# System: Trp-p8 orthologues
# Assay: not given
# Details: reported by McKemy et al. and Peier et al.; cited from earlier work
row,SMILES,Effective concentration in inducing calcium influx [µM]
1,"O=C1NC(c2cccc([N+](=O)[O-])c2)=CCN1c1ccccc1O [Icilin, 1-(2-hydroxyphenyl)-4-(3-nitrophenyl)-1,2,3,6-tetrahydropyrimidine-2-one]",0.1 to 1
2,"CC1CCC(C(C)C)C(O)C1 (stereo not shown) [Menthol, 2-isopropyl-5-methyl-cyclohexanol]",10 to 100

# Target: T1, Trp-p8 (Homo sapiens, UniProt Q7Z2W7, T58I)
# T1 construct: expressed in transfected cells
# Assay: Calcium flux assay (Fura-2) for agonists in CHO/Trp-p8 cells at 37° C.
# Format: cell-based
# Details: 1 μM, CHO and CHO/Trp-p8 cells
# Description: FIGS. 2A-2C are graphs depicting Trp-p8 agonist-induced increases in intracellular calcium as determined by a calcium flux assay performed at 37° C.
# Calcium influx was measured using a Flexstation Microplate Fluorescence Plate Reader (Molecular Devices; Sunnyvale, Calif.). A typical assay for calcium flux was performed as follows. Cells in DMEM/Ham's F-12 based medium, typically at a density of 30,000 cells/well/100 were plated in a 96-well black-walled, clear bottomed tissue culture plate (Greiner Bio-one) and incubated for 16-20 hours at 37° C. Cells in each well were incubated for one hour at 37° C. with a Fura2-AM Fluorescent Dye/Pluronic […] mixture (Molecular Probes; Eugene, Oreg.) and dissolved in the medium containing Probenecid. […]
# Typically, the above described HEPES/HBSS-based buffer containing either no additional calcium or with calcium to increase the concentration to 2 mM and various concentrations of compounds (at 5-times the final concentrations) were added to each well using the robotic multi-channel pipettor. […] Signals were read with dual excitation wavelengths of 340 and 380 nm and emission wavelength of 510 nm with a cut-off filter at 495 nm. The signal was reported as the ratio of emission when excited at 340 nm to the emission when excited at 380 nm [Relative Fluorescence Units (RFU)]. […]
# T1 sequence (Q7Z2W7 whole entry T58I): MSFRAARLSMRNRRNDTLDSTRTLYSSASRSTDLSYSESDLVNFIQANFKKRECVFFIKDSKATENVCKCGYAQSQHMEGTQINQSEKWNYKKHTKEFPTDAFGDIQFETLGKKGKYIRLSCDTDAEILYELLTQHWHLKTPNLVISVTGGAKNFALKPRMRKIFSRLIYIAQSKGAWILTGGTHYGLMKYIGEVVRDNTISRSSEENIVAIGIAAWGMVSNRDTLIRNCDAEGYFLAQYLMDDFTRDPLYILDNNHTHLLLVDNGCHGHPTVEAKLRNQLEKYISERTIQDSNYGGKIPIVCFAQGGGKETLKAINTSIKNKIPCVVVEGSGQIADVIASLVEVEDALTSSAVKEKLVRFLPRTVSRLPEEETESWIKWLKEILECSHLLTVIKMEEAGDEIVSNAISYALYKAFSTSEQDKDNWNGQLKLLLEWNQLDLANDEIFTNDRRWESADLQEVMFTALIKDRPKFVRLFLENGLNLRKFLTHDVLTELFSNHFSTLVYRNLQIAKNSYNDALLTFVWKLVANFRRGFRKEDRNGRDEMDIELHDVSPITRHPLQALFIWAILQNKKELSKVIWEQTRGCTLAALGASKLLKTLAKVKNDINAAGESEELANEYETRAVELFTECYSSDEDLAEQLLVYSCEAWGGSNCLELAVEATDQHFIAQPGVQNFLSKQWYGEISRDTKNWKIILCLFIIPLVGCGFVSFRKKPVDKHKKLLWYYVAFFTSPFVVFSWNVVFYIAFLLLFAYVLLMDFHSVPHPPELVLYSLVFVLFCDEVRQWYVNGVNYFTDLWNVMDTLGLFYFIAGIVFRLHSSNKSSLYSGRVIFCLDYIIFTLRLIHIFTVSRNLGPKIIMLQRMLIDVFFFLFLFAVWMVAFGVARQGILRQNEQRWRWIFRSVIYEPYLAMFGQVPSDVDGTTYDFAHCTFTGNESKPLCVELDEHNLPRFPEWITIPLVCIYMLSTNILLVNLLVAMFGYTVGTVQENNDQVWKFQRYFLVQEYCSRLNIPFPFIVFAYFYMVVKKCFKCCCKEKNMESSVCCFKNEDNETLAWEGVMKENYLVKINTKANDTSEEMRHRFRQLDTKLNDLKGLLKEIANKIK
row,SMILES,Response to positive control in calcium flux assay (FIG. 2A)
1,"C[C@H](CCC(=O)O)C[C@H](C)C[C@H](C)C(=O)/C=C(\O)[C@H](C)C[C@H](C)C/C=C/[C@@H](C)[C@@H](O)[C@@H](C)[C@@H](O)C[C@@H]1CC[C@@](C)([C@H]2CC[C@@](C)([C@@H](C)O)O2)O1 [Ionomycin, reference compound]",respond similarly

# Same assay, conditions: CHO/Trp-p8 cells
row,SMILES,Increase in intracellular calcium (FIG. 2C)
1,CC(C)[C@@H]1CC[C@@H](C)C[C@H]1C(=O)NCCc1ccccc1 [compound 1603],"specific, concentration-dependent response"

# Target: T1, Trp-p8
# Assay: Cell viability (ATP) assay for Trp-p8 antagonists: protection of CHO/Trp-p8 cells from toxic control agonist D-1607
# Format: cell-based
# Details: Table 2, Formula VIII antagonists; 10 μM compound plus toxic concentration of control agonist D-1607, CHO/Trp-p8 cells, 37° C.; ATP level relative to DMSO
# Description: FIG. 4 is a graph depicting exemplary results from a primary screen for Trp-p8 antagonists using the ATP viability assay, described herein, with CHO/Trp-p8 cells at 37° C. CHO/Trp-p8 cells were exposed to compounds, at different concentrations, in 1% DMSO or 1% DMSO in combination with a toxic concentration of the Trp-p8 agonist 1607. The viability of cells was measured after 24-26 hours at 37° C. using the ATP assay.
# As a primary screen for efficacy and specificity for agonists, both the non-transfected CHO and CHO/Trp-p8 cells were exposed to 10 μM of test compounds in 1% dimethylsulfoxide (DMSO) or 1% DMSO (control) in a 96-well black walled, black-bottomed, cell-culture treated plate. DMSO was the solvent for all of the compounds tested. After 24-26 hours at 37° C., the cells were lysed and ATP concentration determined via a chemiluminescence assay using a commercially available reagent kit—Cell Titer-Glo (Promega; Madison, Wis.). […] (EC50 is defined herein as the agonist concentration at which there is a 50% reduction in cell viability).
# Trp-p8 antagonists were identified by employing a cell viability assay with CHO/Trp-p8 cells at 37° C. (see Example 7) with the following modification. Within the context of the present invention, compounds that protect CHO/Trp-p8 cells from the toxic effect of a control agonist thereby maintaining the viability of the CHO/Trp-p8 cell exposed to a Trp-p8 agonist is defined as antagonist. As a primary screen for antagonists, CHO/Trp-p8 cells were exposed to 10 μM of test compounds in 1% dimethylsulfoxide (DMSO) or 1% DMSO plus a toxic concentration of a control agonist, D-1607.
row,SMILES,Relative Viability (%) at 10 μM [%]
1,CC(C)[C@@H]1CC[C@@H](C)C[C@H]1OCC(=O)N1c2ccccc2CC1C (stereo partly shown) [compound 1691],92
2,CCN(CCNC(=O)CO[C@@H]1C[C@H](C)CC[C@H]1C(C)C)c1cccc(C)c1 [compound 1937],101
3,CC(C)[C@@H]1CC[C@@H](C)C[C@H]1C(=O)Nc1nnc(Sc2ccnc3cc(Cl)ccc23)s1 [compound 3026],86
4,CC(C)[C@@H]1CC[C@@H](C)C[C@H]1NC(=O)COc1ccccc1[N+](=O)[O-] [compound 2045],191
5,CC(C)[C@@H]1CC[C@@H](C)C[C@H]1NC(=O)N1CCc2ccccc2C1 [compound 1819],86
6,Cc1ccccc1CCNC(=O)CO[C@@H]1C[C@H](C)CC[C@H]1C(C)C [compound 1923],116
7,CC(C)[C@@H]1CC[C@@H](C)C[C@H]1OCC(=O)NCc1ccccc1Cl [compound 1669],86
8,Cc1ccnc(N(Cc2ccccc2)C(=O)[C@@H]2C[C@H](C)CC[C@H]2C(C)C)c1 [compound 2639],102
9,CCCc1c(C(=O)N[C@@H]2C[C@H](C)CC[C@H]2C(C)C)cnn1-c1ccccc1 [compound 2067],105
10,CC(NC(=O)CO[C@@H]1C[C@H](C)CC[C@H]1C(C)C)c1ccccc1 (stereo partly shown) [compound 1664],107
11,CC(C)[C@@H]1CC[C@@H](C)C[C@H]1NC(=O)[C@@H]1C[C@H]1c1ccccc1 [compound 2013],95
12,CC(Oc1ccccc1)C(=O)N[C@@H]1C[C@H](C)CC[C@H]1C(C)C (stereo partly shown) [compound 2018],103
13,CCc1ccc(-c2n[nH]cc2CN[C@@H]2C[C@H](C)CC[C@H]2C(C)C)cc1 [compound 2754],74
14,CC(C)[C@@H]1CC[C@@H](C)C[C@H]1NC(=O)NCCCSC1CCCCC1 [compound 1882],85

# Same assay, conditions: Table 3, Formula VII antagonists; 10 μM compound plus toxic concentration of control agonist, CHO/Trp-p8 cells, 37° C.; ATP level relative to DMSO
row,SMILES,Rel. Viab. (%) at 10 μM [%]
1,Cc1ccc(C)n1-c1ccc(N2CCN(c3ccccc3)CC2)c([N+](=O)[O-])c1 [compound 103],99
2,Cc1nc2sc(C(c3cccc(F)c3)N3CCN(C(c4ccccc4)c4ccccc4)CC3)c(O)n2n1 (stereo not shown) [compound 1026],92
3,FC(F)(F)Oc1ccc(Nc2nc(N3CCCCCC3)nc(N3CCN(C45CC6CC(CC(C6)C4)C5)CC3)n2)cc1 [compound 809],89

# System: Trp-p8
# Assay: not given
# Details: cold-sensitive neurons, Trp-p8 in Xenopus oocytes, HEK293 and CHO cells; cited from earlier work
row,SMILES,Higher temperature threshold reported for Trp-p8 activation
1,"CC1CCC(C(C)C)C(O)C1 (stereo not shown) [Menthol, 2-isopropyl-5-methyl-cyclohexanol]",30-32 °C
